A short description of this experiment: subG1, G1, S, G2/M shifts, DLD-1 – cell-based, flow cytometry, propidium iodide, powder samples, counter-screen for KLF5 inhibitor project, late-stage follow-up (AID 588539). Conditions: DLD-1 cell cycle, at 10 µM; for G1 cells: G1 phase fraction; for G2/M cells: G2/M phase fraction; for S cells: S phase fraction; for subG1 cells: stronger effect = higher value. Background: A flow cytometer gives signals particle by particle.

For `CN(C(=O)COC(=O)/C=C/c1cccc([N+](=O)[O-])c1)C1CCS(=O)(=O)C1` (stereo not drawn), for the setting “24 h”, the G1 cells turned out to be 39.4%, the G2/M cells was 34.7%, the S cells turned out to be 18.3% and the subG1 cells turned out to be 8.03%. Further, for the setting “48 h”, the G1 cells was 27.6%, the G2/M cells is 57.6%, the S cells was found to be 13% and the subG1 cells is 1.86%.

The record behind these values is PubChem BioAssay AID588539 (The Scripps Research Institute Molecular Screening Center, 2011).
